Patent US11083714B2, “Selective anti-cancer agent effective for prevention and treatment” (Molecular International Research, Inc., priority 2018, dated 2021)
“Also recorded” adds a separate entry of the source. Read-outs that look alike come from different tables or passages of the source.

Tests used:
[1] = format: in vivo; settings: 100, 150 and 200 mg/kg, groups of two, 48 hr observation
Description: A study with synthetic compounds 13-7-2 (flavopereirine) and 13-9-1 (de-ethylflavopereirine) was conducted to compare the toxicity of the two compounds in animals. The compounds were dissolved in phosphate buffered saline for administration. Both compounds were injected IP in male immunodeficient (homozygous recessive scid/scid, beige/beige) mice.
Compound 13-7-2 was injected at a dose of 100 mg/kg, 150 mg/kg, and 200 mg/kg in mice divided in groups of two. […] One mouse injected with 150 mg/kg died at 6 hr whereas one mouse injected with 200 mg/kg dose died at 24 hr. One mouse injected with 100 mg/kg dose died at 48 hr.
Compound 13-9-1 was injected at a dose of 100 mg/kg, 150 mg/kg, and 200 mg/kg in mice divided in groups of two.

OVCAR-5, SHIN-3, OVCAR-8 = test: MTT cell viability, ovarian cancer cell lines; format: cell-based, human; settings: 48 hr
Description: (§1) FIG. 7. Dose-response curves for cell viability of human ovarian cancer cell lines OVCAR-5 (triangles), SHIN-3 (squares), and OVCAR-8 (lozenges) exposed to de-ethylflavopereirine. Cells were cultured in the presence of increasing concentrations of the compound for 48 hr and cell viability was determined by MTT assay. MRC-5 (crosses), an immortalized, normal human […] cell line, was used as a control.
(§2) De-ethylflavopereirine was tested for its activity against ovarian, pancreatic, brain, and colon cancer cell lines. […] Cytotoxicity is assayed by reducing a yellow tetrazolium dye, 3-(4,5-dimethylthiazol-2-yl)-2,5-diphenyltetrazolium bromide (MTT), to insoluble purple formazan. The MTT assay is a colorimetric assay for determining the number of viable cells.

[2] = test system: MIA PaCa, PANC-1, BxPc, AsPc; test: MTT cell viability, pancreatic cancer cell lines; format: cell-based, human; settings: 48 hr
Description: (§3) FIG. 8. Dose-response curves for cell viability of human pancreatic cancer cell lines MIA PaCa (squares), PANC-1 (lozenges), BxPc (crosses), and AsPc (triangles) exposed to de-ethylflavopereirine. Cells were cultured in the presence of increasing concentrations of the compound for 48 hr and cell viability was determined by MTT assay. MRC-5 (asterisks) was used as a control.
as §2

MRC-5 = test: MTT cell viability, normal control cell line; format: cell-based, human; settings: MRC-5, 48 hr
Description: as §1, §3, §2

HT-29 = test: Viability of bioluminescent HT-29 colon cancer cells; format: cell-based, human; settings: HT-29, luminescence
Text: FIG. 10. Dose-response curve for human colon cancer cell line HT-29 exposed to either de-ethylflavopereirine (squares) or Pao pereira plant extract (triangles) containing flavopereirine and at least one other anti-cancer compound, dihydroflavopereirine. The bioluminescent HT-29 cell line was used.
A bioluminescent line was used enabling viability to be assessed by luminescence. In this case, the activity of compound 13-9-1 was compared with a Pao pereira extract containing flavopereirine and at least one other anti-cancer compound.

[3] = test system: PANC-1 pancreatic cancer cells; test: Cleavage of Caspase-3, Caspase-8 and PARP; format: cell-based; settings: 0-20 μM for 48 hours; 20 μM for 0-48 hours
Text: FIG. 12. Cleavage of Caspase-3, Caspase-8, and PARP confirms that de-ethylflavopereirine induces apoptosis in PANC-1 pancreatic cancer cells. Beta-actin was used as a control.
Induction of apoptosis was also shown by detection of Caspase-8, Caspase-3, and PARP cleavage products. The cleaved protein products are identified in FIG. 12 by arrows adjacent to the right panel. The accumulation of these proteolytic fragments is a biochemical signature for apoptotic cell death.

[4] = Tissue distribution after oral administration; format: in vivo, mice; settings: oral 200 mg/kg; for Tmax: mouse
Text: The highest concentrations (highest Cmax) were found in kidney, colon and spleen. Highest AUC was found with the lung, followed by spleen, colon, and kidney.
Lung had the largest AUC and the fastest Tmax. […] Compound 13-9-1 was accumulated in the lung relatively fast, and was eliminated relatively slowly. The concentration was maintained in lung for a long time relative to other organs. At 24 hr, the concentration in the lung was still 6.67 nmoles/mg protein, 38% of the peak of 17.50 at 2 hr.
Colon had the second highest Cmax among all the organs tested, and an AUC only less than lung and spleen. […] Tmax was 3 hr. At 24 hr, the concentration was 9.31 nmoles/mg protein, 29% of the peak of 31.63.

PANC-1 cancer stem cells = test: Tumor formation of PANC-1 cancer stem cells (FIG. 27); format: in vivo, mice; settings: 2×10^5 pre-treated PANC-1 cells
Description: FIG. 27. Reduction of tumor formation by de-ethylflavopereirine. Compound 13-9-1 reduced tumor formation of PANC-1 cancer stem cells.
Mice were then treated with de-ethylflavopereirine for 20 days after injection. […] Maximum tumor formation rate reached 80% at day 39, which is a highly significant difference compared to control (P=0.001 by log-rank test).

[5] = Alcohol-induced chronic pancreatitis model; format: in vivo; settings: mice given ethanol and compound in the daily diet
Text: FIG. 29. Effects of de-ethylflavopereirine in a mice model of alcohol-induced chronic pancreatitis. Paraffin sections of the pancreas were stained with hematoxylin and eosin. […] This tissue protection was quantitated with an injury score (FIG. 29B). Ly6G was elevated four-fold in the pancreas of mice given ethanol while the number of neutrophils was not elevated in mice given ethanol and compound 13-9-1 (FIG. 29C).
Daily administration of ethanol to mice was followed by a binge of ethanol administration, a regimen relevant to human consumption. In the experimental group, de-ethylflavopereirine was included in the daily diet throughout the course of the experiment. There were two control groups: animals that were given no alcohol (negative control) and animals given alcohol without receiving the compound 13-9-1 (positive control). Following 10 days of alcohol treatment, the animals were gavaged with alcohol for 8 hours then euthanized, and their pancreatic tissues were collected. Pancreatic tissue sections were analyzed for histology and isolated RNA was used for quantitative PCR.

[6] = listed as de-ethylflavopereirine

With `c1ccc2c(c1)[nH]c1c2cc[n+]2ccccc12` [Compound 13-9-1, 12H-indolo[2,3-a]quinolizin-5-ium] the “deaths after IP injection” value [1] was “None of the mice injected with compound 13-9-1 died”, the “deaths after IP injection” value [1, 6] was “no mice injected IP with de-ethylflavopereirine died” and the cell viability (OVCAR-5, SHIN-3, OVCAR-8) was “dose-dependent decrease in cancer cell viability”. The cell viability [2] was “dose-dependent decrease in cancer cell viability”, the “toxicity to noncancerous cells compared with cancer cells” value (MRC-5) was “significantly less toxic” and the “activity compared with Pao pereira extract” value (HT-29) was “active at much lower concentrations than the plant extract”. For the same molecule, the “cleavage of Caspase-3, Caspase-8 and PARP” value [3] was “dose- and time-dependent”, the Cmax ([4]; adrenal gland) was 17.62 nmoles/mg of protein and the Cmax ([4]; brain) was 1.20 nmoles/mg of protein. For the same molecule, the Cmax ([4]; colon) was 31.63 nmoles/mg of protein, the “concentration at 24 hr” value ([4]; colon) was 9.31 nmoles/mg protein and the “concentration at 24 hr as share of the peak” value ([4]; colon) was 29%. The Cmax ([4]; heart) was 7.82 nmoles/mg of protein, the Cmax ([4]; kidney) was 55.69 nmoles/mg of protein and the Cmax ([4]; liver) was 22.21 nmoles/mg of protein. For the same molecule, the Cmax ([4]; lung) was 17.50 nmoles/mg of protein, the “concentration at 24 hr” value ([4]; lung) was 6.67 nmoles/mg protein and the “concentration at 24 hr as share of the peak” value ([4]; lung) was 38%. The Tmax ([4]; adrenal gland) was 4 h, the Tmax ([4]; brain) was 4 h and the Tmax ([4]; colon) was 3 h. It also gave a Tmax ([4]; heart) of 4 h, a Tmax ([4]; kidney) of 4 h and a Tmax ([4]; liver) of 4 h. The Tmax ([4]; lung) was 2 h, the Tmax ([4]; muscle) was 4 h and the Tmax ([4]; ovary) was 4 h. For the same molecule, the Tmax ([4]; pancreas) was 4 h, the Tmax ([4]; spleen) was 4 h and the Cmax ([4]; muscle) was 5.67 nmoles/mg of protein. For the same molecule, the tissue distribution [4] was “found in all tested organs and tissues, including the brain”, the Cmax ([4]; ovary) was 11.17 nmoles/mg of protein and the Cmax ([4]; pancreas) was 16.95 nmoles/mg of protein. For the same molecule, the Cmax ([4]; spleen) was 30.01 nmoles/mg of protein, the tumor formation (PANC-1 cancer stem cells; Day 20) was 55% and the “maximum tumor formation rate” value (PANC-1 cancer stem cells; Day 39) was 80%. The “Ly6G level / number of neutrophils in the pancreas” value [5] was “not elevated”, the injury score [5] was “completely prevented injury” and the “pancreatic tissue damage (histology)” value [5] was “prevented; also recorded: no tissue damage”. For the same molecule, the “Ly6G level / number of neutrophils in the pancreas” value [5, 6] was “completely normal Ly6G level”.
